From US20140024687A1, “Combinations of Vascular Disrupting Agents with Inhibitor of Apoptosis Proteins Antagonists” (priority 2009, published 2014)

Experiments:
[1] = system: MDA-MB-231 human breast cancer orthotopic xenograft; assay: Single agent anti-tumor activity, MDA-MB-231 human breast cancer orthotopic xenograft (Example 1); type: in vivo, athymic nude mice; conditions: day 71 post implantation; Compound B 150 mg/kg po qw days 50, 57, 64; Compound A 20 mg/kg iv days 50, 54, 58; p<0.05 compared to vehicle controls
Protocol: Treatment started on day 50 following orthotopic implantation of 7.5×10^6 MDA-MB-231 human breast cancer cells into the mammary fat pad. Starting tumor volume averaged 160 mm^3 (range=76 to 286); n=8/group. […] The vehicle for […] is 10% Tris-HCl buffer and 90% 1×PBS, Statistical analysis performed on delta tumor volumes on day 71 post implantation using a One-way ANOVA followed by a post hoc Tukey test.

human TNF = assay: Human TNF in MDA-MB-231 tumor lysates after treatment; type: in vivo; conditions: tumors collected 6 hrs after final dose; n=4, no statistical analysis
Source text: (§1) Due to the small sample size (n=4), statistical analysis was not performed.

TNF mRNA = conditions: Colon 38 tumor bearing mice (Joseph WR, 1999); cited from earlier work
[2] = system: HS944.t human melanoma xenograft; conditions: B 100 mg/kg po qw; A 15 mg/kg iv; combination; days 14 and 21
Protocol: Treatment started on day 14 following subcutaneous implantation of 5.0×10^6 Hs944.t human melanoma cancer cells in 50% basement membrane matrix. Starting tumor volume averaged 245 mm^3 (range=146 to 321); n=8/group. In this study, (s)—N—((S)-1-cyclohexyl-2-{(S)-2-[4-(4-fluoro-benzoyl)-thiazol-2-yl]-pyrrolidin-1-yl}-2-oxo-ethyl)-2-methylamino-propionamide was administered orally (po) at 100 mg/kg, qw, 5,6-dimethylxanthenone-4-acetic acid was administered intravenously (iv) at 15 mg/kg, or (S)—N—((S)-1-cyclohexyl-2-{(S)-2-[4-(4-fluoro-benzoyl)-thiazol-2-yl]-pyrrolidin-1-yl}-2-oxo-ethyl)-2-methylamino-propionamide and 5,6-dimethylxanthenone-4-acetic acid were administered in combination on days 14 and 21 post implantation, Vehicle control for (S)—N—((S)-1-cyclohexyl-2-{(S)-2-[4-(4-fluoro-benzoyl)-thiazol-2-yl]-pyrrolidin-1-yl}-2-oxo-ethyl)-2-methylamino-propionamide is 30% 0.1N HCl and 70% 100 mM sodium acetate buffer, pH 4.63, Vehicle control for 5,6-dimethylxanthenone-4-acetic acid is 10% 1× Tris-HCl and 90% 1×PBS, Statistical analysis performed on tumor volumes from day 14-27 post implantation using a repeated measures MANOVA test.

mouse TNF = assay: Mouse TNF in MDA-MB-231 breast xenograft tissue after treatment; type: in vivo; conditions: tumors collected 6 hrs after final dose; n=4, no statistical analysis
Source text: as §1

SMILES	single agent anti-tumor activity (delta tumor volumes vs vehicle controls) [1]	human TNF in MDA-MB-231 tumor lysates (human TNF)	TNF mRNA in tumor, spleen, and liver (TNF mRNA)	surviving animals at study termination [2]	mouse TNF in xenograft tissue (mouse TNF)
CN[C@@H](C)C(=O)N[C@H](C(=O)N1CCC[C@H]1c1nc(C(=O)c2ccc(F)cc2)cs1)C1CCCCC1 [Compound B, (S)—N—((S)-1-Cyclohexyl-2-{(S)-2-[4-(4-fluoro-benzoyl)-thiazol-2-yl]-pyrrolidin-1-yl}-2-oxo-ethyl)-2-methylamino-propionamide]	demonstrated single agent anti-tumor activity	increase in human TNF	–	–	–
Cc1ccc2c(=O)c3cccc(CC(=O)O)c3oc2c1C [Compound A, 5,6-dimethylxanthenone-4-acetic acid]	demonstrated single agent anti-tumor activity	–	increase TNF mRNA	7/8	increase in mouse TNF
